# Laboratory results: ChEMBL document CHEMBL1150120, “New vibsane diterpenes and lupane triterpenes from Viburnum odoratissimum” (2002)
# *1 amine or outer side, *2 acyl side, *3 side chain or, on linkers, in order; H or OH if unused. Where a SMILES comes first, the peptide text is derived from it. Bridges are numbered along the chain shown (N, C = ends). Roman numbers before positions name the chains, in order. [ ]: non-standard residue; d: D form. Actinocin(1to9) = Cc1c2oc3c(C)ccc(C(=O)[*:2])c3nc-2c(C(=O)[*:1])c(N)c1=O; NMeV = CN[C@H](C(=O)O)C(C)C; Sar = CNCC(=O)O
# Tests used:
# [1] = test system: NUGC; test: Cytotoxicity against human NUGC cells assessed as cell growth at 10 uM after 3 to 24 hrs by MTS assay; assay type: functional; conditions: read-out: Activity
# [2] = test system: NUGC; test: Cytotoxicity against human NUGC cells assessed as cell growth at 5 uM after 3 to 24 hrs by MTS assay; assay type: functional; conditions: read-out: Activity
SMILES,growth at 10 µM [1] [%],growth at 5 µM [2] [%]
C=C(C)[C@@H]1CC[C@]2(C(=O)O)CC[C@]3(C(=O)O)[C@H](CC[C@@H]4[C@@]5(C)CCC(=O)C(C)(C)[C@@H]5[C@@H](O)C[C@]43C)[C@@H]12,> 50,–
C=C(C)[C@@H]1CC[C@]2(C(=O)O)CC[C@]3(C(=O)O)[C@H](CC[C@@H]4[C@@]5(C)CCC(=O)C(C)(C)[C@@H]5[C@H](O)C[C@]43C)[C@@H]12,20,–
"Cc1c2oc3c(C)ccc(C(=O)N[C@@H]4C(=O)N[C@H](C(C)C)C(=O)N5CCC[C@H]5C(=O)N(C)CC(=O)N(C)[C@@H](C(C)C)C(=O)O[C@@H]4C)c3nc-2c(C(=O)N[C@@H]2C(=O)N[C@H](C(C)C)C(=O)N3CCC[C@H]3C(=O)N(C)CC(=O)N(C)[C@@H](C(C)C)C(=O)O[C@@H]2C)c(N)c1=O [DACTINOMYCIN] (I: T[dV]P[Sar][NMeV] / II: T[dV]P[Sar][NMeV]; ester I:1-I:C, II:1-II:C; linker I:N-II:N via Actinocin(1to9))",–,0
CC(C)=CC(=O)O[C@@H]1/C=C/[C@@](C)(C/C=C/C(C)(C)O)C/C=C(/CO)C(=O)/C=C/[C@@]1(C)O [VABSANOL A],15,–
C=C(C)C(O)CC[C@]1(C)/C=C/[C@@H](OC(=O)C=C(C)C)[C@](C)(O)/C=C/C(=O)/C(CO)=C\C1 (stereo not given in full) [VIBSANOL B],> 50,–
